Results as given in publication PMC4229301, “A Polymeric Prodrug of 5-Fluorouracil-1-Acetic Acid Using a Multi-Hydroxyl Polyethylene Glycol Derivative as the Drug Carrier” (PLoS ONE, 2014).
One block for each compound: values may come before it.

Legend:
[1] = tested on: Kunming mice; assay: Safety evaluation: myelosuppression (white blood cell and blood platelet counts) after intravenous administration; details: i.v., same doses, n=12
[2] = Pharmacokinetics study after i.v. injection in rats; type: in vivo, Wistar rats
Experimental: Male Wistar rats were purchased from The laboratory Animal Center of Sichuan University. 12 Wistar rats (body weight: 200 g±20 g) were divided into two groups randomly (n = 6). […] The blood samples were collected into heparinized centrifuge tubes at predetermined intervals (see Table S2 in file SI) by retro-orbital puncture, and the plasma was separated by centrifugation. Each plasma sample of the test groups was divided into two portions. They were treated as hydrolyzed and unhydrolyzed as described in the “In vitro drug release” section. The two portions of the samples were analyzed by HPLC to determine the plasma concentrations of released 5-FA and total 5-FA of the conjugate whereas the plasma samples of the control group were treated as unhydrolyzed samples.
(§1) The data of pharmacokinetics and in vivo distribution study were processed using the Drug and Statistics Software 2.0 (DAS 2.0, Shanghai, China). The statistical analysis of the samples was performed by using one-way ANOVA and Student's t-test. p-values <0.05 were considered as statistically different.

[3] = In vivo distribution in H22 tumor-bearing mice; set-up: species or system Kunming mice
Experimental: The tumor-bearing animal model was established by subcutaneous injection of H22 cells (1×10^7 cells/ml, in 0.2 ml saline) into the right axillary region of Kunming mice. The sizes of tumors were monitored 7 days after inoculation and the tumor volumes were calculated as described in the “Antitumor activity in tumor-bearing mice” section. The mice with tumor volumes between 0.35 cm^3 and 0.65 cm^3 were randomized into two groups (n = 30). […] The mice were exsanguinated and sacrificed by neck dislocation at predetermined time points. Tissues including heart, liver, spleen, lung, kidney, brain and tumor were collected, washed with physiological saline, weighed and homogenized with two fold concentrated physiological saline. The samples of the test group were treated as hydrolyzed samples as described in the section “In vitro drug release”, whereas those of the control group were treated as unhydrolyzed samples. All data are presented as the concentration of 5-FA.
as §1

[4] = male, Wistar, rat, plasma, iv, 20 mg/kg
[5] = rats, i.v., 20 mg/kg 5-FA or 189 mg/kg 5-FA-PAE

SMILES: O=c1[nH]cc(F)c(=O)[nH]1 [5-Fu, 5-fluorouracil]
number of blood platelets ([1]; 1 day after injection): 792 ± 122 ×10^9/L | number of blood platelets ([1]; 4 days after injection): 819 ± 211 ×10^9/L | number of white blood cells ([1]; 4 days after injection): 6.84±5.76 ×10^9/L | number of blood platelets ([1]; 7 days after injection): 858 ± 254 ×10^9/L | number of white blood cells ([1]; 7 days after injection): 7.34±2.82 ×10^9/L | number of blood platelets ([1]; 10 days after injection): 863 ± 382 ×10^9/L | number of white blood cells ([1]; 10 days after injection): 8.59±2.39 ×10^9/L

AUC(0-inf) [2, 4]: 21600 ± 4470 ng·h/mL | AUC(0-t) [2, 4]: 21400 ± 4360 ng·h/mL | Cmax [2, 4]: 74.9 ± 10.2 µg/mL | Tmax [2, 4]: 1 min | MRT last ([2]; male, Wistar, rat, plasma, iv, 20 mg/kg, read-out: MRT 0-t): 40.7 ± 8.52 min | MRT inf ([2]; male, Wistar, rat, plasma, iv, 20 mg/kg, read-out: MRT 0-∞): 47.7 ± 14.4 min | Vd ([2]; male, Wistar, rat, plasma, iv, 20 mg/kg, read-out: V (apparent volume of distribution)): 2.11 ± 0.62 L/kg | half-life ([2]; male, Wistar, rat, plasma, iv, 20 mg/kg, read-out: t1/2 (elimination half life) (converted)): 92.3 ± 25.1 min | concentration at 1 min ([2]; male, Wistar, rat, plasma, iv, rats, i.v. 20 mg/kg 5-FA, 1 min): 79.9 ± 10.2 µg/mL | concentration at 5 min ([2]; male, Wistar, rat, plasma, iv, rats, i.v. 20 mg/kg 5-FA, 5 min): 79.9 ± 2.86 µg/mL | concentration at 10 min ([2]; male, Wistar, rat, plasma, iv, rats, i.v. 20 mg/kg 5-FA, 10 min): 79.9 ± 3.52 µg/mL | concentration at 15 min ([2]; male, Wistar, rat, plasma, iv, rats, i.v. 20 mg/kg 5-FA, 15 min): 79.9 ± 5.07 µg/mL | concentration at 30 min ([2]; male, Wistar, rat, plasma, iv, rats, i.v. 20 mg/kg 5-FA, 30 min): 79.9 ± 2.8 µg/mL | concentration at 1 h ([2]; male, Wistar, rat, plasma, iv, rats, i.v. 20 mg/kg 5-FA, 1 h): 79.9 ± 0.986 µg/mL | concentration at 2 h ([2]; male, Wistar, rat, plasma, iv, rats, i.v. 20 mg/kg 5-FA, 2 h): 79.9 ± 0.814 µg/mL | time of complete removal from the blood circulation after administration ([2]; rats, i.v.): 6∼8 h | Plasma concentration, 5-FA ([2]; rats, i.v. 20 mg/kg 5-FA, 10 h): - | Plasma concentration, 5-FA ([2]; rats, i.v. 20 mg/kg 5-FA, 24 h): - | Cl (clearance) [2, 5]: 0.967 ± 0.259 mL/g/h | VRT 0-t [2, 5]: 1.519±0.326 h^2 | VRT 0-∞ [2, 5]: 2.703±1.558 h^2 | concentration in tumor over time ([3]; H22 tumor-bearing mice, i.v. 20 mg/kg 5-FA): undetectable after 6 h | concentration at 15 min ([3]; Kunming, mouse, tumor, iv, 20 mg/kg): 4860 ± 1620 ng/g | Kp at 4 h ([3]; Kunming, mouse, tumor/plasma, iv, 20 mg/kg, H22 tumor-bearing mice, i.v., 4 h after injection, read-out: ratio of tumor/plasma concentration): 1.99
SMILES: O=C(O)Cn1cc(F)c(=O)[nH]c1=O [5-FA, 5-fluorouracil-1-acetic acid]
number of blood platelets ([1]; 1 day after injection): 945 ± 139 ×10^9/L | number of blood platelets ([1]; 4 days after injection): 781 ± 250 ×10^9/L | number of white blood cells ([1]; 4 days after injection): 10.32±5.71 ×10^9/L | number of blood platelets ([1]; 7 days after injection): 822 ± 198 ×10^9/L | number of white blood cells ([1]; 7 days after injection): 10.24±4.50 ×10^9/L | number of blood platelets ([1]; 10 days after injection): 860 ± 188 ×10^9/L | number of white blood cells ([1]; 10 days after injection): 11.55±3.62 ×10^9/L
